The record followed here is patent US11440906B2, “Biguanide derivatives and their rearrangement products for use in the treatment of cancer” (CENTRE NATIONAL DE LA RECHERCHE SCIENTIFIQUE, priority 2017, dated 2022).

Read-outs that look alike come from different tables or passages of the source.

The experiment has as its system A375 Sensitive cells. The experiment is described as follows: Viability test, trypan blue exclusion, A375 Sensitive cells. Format: cell-based, human. The following applies: Homo sapiens, A-375, viable cells as percentage of DMSO control. The source says: Different melanoma cell lines were purchased from the American Tissue Culture Collection: A375 and WM9 cells are mutated on B-Raf, CDKN2A and PTEN proteins; SKmel28 cells are mutated on B-Raf and P53 proteins; 1205Lu cells are mutated on B-Raf and PTEN proteins; G-361 cells are mutated on B-Raf and CDKN2A proteins; C8161 cells are mutated on B-Raf and K-Ras proteins; WM3912 cells are mutated on B-Raf and CDKN2A proteins; MeWo cells are mutated on P53 and CDKN2A proteins; WM3918 presents no mutations on characteristic proteins.
For trypan blue staining, […] of cells (melanoma and normal human cells) were aseptically transferred to a 1.5 mL clear Eppendorf tube and incubated for 3 min at room temperature with an equal volume of 0.4% trypan blue solution. Viable cells were counted and the results are expressed as the percentage of the value of control cells. All the experiments are performed 3 times in triplicate.
A375 Sensitive cells were treated with different concentrations of the synthesized molecules (5.0 μM or 10 μM) for different times (24 hr or 48 hr) or with DMSO (Control) for 12 or 48 hr. At the end of the stimulation, viable cells were counted using the trypan blue dye exclusion method. The results are normalized as percentages compare to the control.
A375 Sensitive cells were treated with 5 μM of CRO15 for different times (2 hr, 4 hr, 6 hr, 8 hr, 12 hr, 24 hr or 48 hr) or with 5 μM of PLX4032 (B-Raf inhibitor) for 48 hr or with DMSO (Control) for 48 hr. At the end of stimulation, viable cells were counted using the trypan blue dye exclusion method. The results are normalized as percentages compare to the control and data means±SEM of three independent experiments performed in triplicate *p<0.05; **p<0.01; ***p<0.001.
A375 Sensitive cells were treated with different concentrations of CRO15 (0.5 μM, 2.5 μM, 5.0 μM, 7.5 μM, 50 μM) for 48 hr or with 5 μM of PLX4032 (B-Raf inhibitor) for 48 hr or with DMSO (Control) for 48 hr. At the end of the stimulation, viable cells were counted using the trypan blue dye exclusion method. The results are normalized as percentages compare to the control and data means±SEM of three independent experiments performed in triplicate *p<0.05; **p<0.01; ***p<0.001.
A375 sensitive and resistant melanoma cells were treated with 5 μM of CRO15 for 48 hr or with 5 μM of PLX4032 for 48 hr or with DMSO (Control). At 48 hours, viable cells were counted using the trypan blue dye exclusion method. The results are normalized as percentages compare to the control and data means±SEM of three independent experiments performed in triplicate *p<0.05; **p<0.01; ***p<0.001.

[1] abbreviates: 24 h, read-out: Viab A375 5 μM/ 24 h.
Where [2] appears, read: 48 h, read-out: Viab A375 5 μM/ 48 h.
Setting [3] is: 24 h, read-out: Viab A375 10 μM/ 24 h.
Where [4] appears, read: 48 h, read-out: Viab A375 10 μM/ 48 h.

Regarding `N=C(NC(=N)c1ccncc1)Nc1nc(-c2cccc([N+](=O)[O-])c2)cs1` [MTF 261, N—(N-(4-(3-nitrophenyl)thiazol-2-yl)carbamimidoyl)isonicotinimidamide], the viability at 5 µM by setting is: under setting [1], 24.6%; under setting [2], 63.6%. In addition, the viability at 10 µM reads like this: under setting [3], 71.9%; under setting [4], 115%.
For the compound `COc1ccc(C(=N)NC(=N)Nc2nc(-c3ccccc3)cs2)cc1` [MTF 262, 4-methoxy-N—(N-(4-phenylthiazol-2-yl)carbamimidoyl)benzimidamide], the viability at 5 µM was 61.4% under setting [1] and 43.7% under setting [2]. The viability at 10 µM was 40.8% under setting [3] and 27.3% under setting [4].
Regarding `N=C(NC(=N)c1ccccn1)Nc1nc(-c2ccccc2)cs1` [MTF 263, N—(N-(4-phenylthiazol-2-yl)carbamimidoyl)picolinimidamide], the viability at 5 µM was determined as 89.5% under setting [1] and 91% under setting [2]. The viability at 10 µM reads like this: under setting [3], 100%; under setting [4], 66%.
For the compound `COc1ccc2nc(NC(=N)NC(=N)c3cccc(Br)c3)sc2c1` [MTF 264, 3-bromo-N—(N-(6-methoxybenzo[d]thiazol-2-yl)carbamimidoyl)benzimidamide], the viability at 5 µM under setting [1] is 87%. The viability at 10 µM under setting [3] was 89% and the viability at 10 µM under setting [4] came out at 99%.
As to `Cc1ccc2nc(NC(=N)NC(=N)c3cccc(Br)c3)sc2c1` [MTF 265, 3-bromo-N—(N-(6-methylbenzo[d]thiazol-2-yl)carbamimidoyl)benzimidamide], the viability at 5 µM reads like this: under setting [1], 91%; under setting [2], 100%. The viability at 10 µM by setting is: under setting [3], 84%; under setting [4], 60%.
In the case of `N=C(NC(=N)c1cccc(Cl)c1)Nc1nc(-c2ccccc2)cs1` [MTF 267, 3-chloro-N—(N-(4-phenylthiazol-2-yl)carbamimidoyl)benzimidamide], the viability at 5 µM is, setting by setting: under setting [1], 113%; under setting [2], 113%. For the same compound, the viability at 10 µM reads like this: under setting [3], 134%; under setting [4], 73.3%.
For the compound `N=C(NC(=N)c1ccccc1)Nc1nc(-c2ccccc2)cs1` [MTF 272, N—(N-(4-phenylthiazol-2-yl)carbamimidoyl)benzimidamide], the viability at 5 µM reads like this: under setting [1], 100%; under setting [2], 81%. Besides, the viability at 10 µM worked out at 88% under setting [3] and 54.6% under setting [4].
Turning to `N=C(NC(=N)c1cccnc1)Nc1nc(-c2ccccc2)cs1` [MTF 273, N—(N-(4-phenylthiazol-2-yl)carbamimidoyl)nicotinimidamide], the viability at 5 µM stood at 46% under setting [1] and 48% under setting [2]. Also, the viability at 10 µM is, setting by setting: under setting [3], 100%; under setting [4], 100%.
On to `N=C(NC(=N)c1ccncc1)Nc1nc(-c2ccccc2)cs1` [MTF 274, N—(N-(4-phenylthiazol-2-yl)carbamimidoyl)isonicotinimidamide], for which the viability at 5 µM is, setting by setting: under setting [1], 83%; under setting [2], 93%. Besides, the viability at 10 µM was 84% under setting [3] and 89% under setting [4].
The like results for `N=C(NC(=N)c1ccccc1Cl)Nc1nc(-c2cccc([N+](=O)[O-])c2)cs1` [MTF 276, 2-chloro-N—(N-(4-(3-nitrophenyl)thiazol-2-yl)carbamimidoyl)benzimidamide] were, in that order, 91.6%, 95.3%, 73.9% and 64.9%.
For the compound `N=C(NC(=N)c1cccc(Cl)c1)Nc1nc(-c2cccc([N+](=O)[O-])c2)cs1` [MTF 277, 3-chloro-N—(N-(4-(3-nitrophenyl)thiazol-2-yl)carbamimidoyl)benzimidamide], the viability at 5 µM reads like this: under setting [1], 77.6%; under setting [2], 88%. For the same compound, the viability at 10 µM came out at 76.4% under setting [3] and 85.8% under setting [4].
For `N=C(NC(=N)c1ccc(Cl)cc1)Nc1nc(-c2cccc([N+](=O)[O-])c2)cs1` [MTF 281, 4-chloro-N—(N-(4-(3-nitrophenyl)thiazol-2-yl)carbamimidoyl)benzimidamide] the same measures were 79%, 112%, 57.4% and 78%.
Take `Cc1csc(NC(=N)NC(=N)c2ccccc2)n1` [MTF 283, N—(N-(4-methylthiazol-2-yl)carbamimidoyl)benzimidamide]: the viability at 5 µM reads like this: under setting [1], 100%; under setting [2], 56%. The viability at 10 µM was 100% under setting [3] and 150% under setting [4].
In the case of `Cc1csc(NC(=N)NC(=N)c2ccccc2Cl)n1` [MTF 284, 2-chloro-N—(N-(4-methylthiazol-2-yl)carbamimidoyl)benzimidamide], the viability at 5 µM by setting is: under setting [1], 80.1%; under setting [2], 117%. For the same compound, the viability at 10 µM under setting [3] was 104% and the viability at 10 µM under setting [4] turned out to be 76.9%.
For `Cc1csc(NC(=N)NC(=N)c2cccc(Cl)c2)n1` [MTF 285, 3-chloro-N—(N-(4-methylthiazol-2-yl)carbamimidoyl)benzimidamide] the same measures were 45%, 100%, 77.8% and 78.7%.
For `Cc1csc(NC(=N)NC(=N)c2ccc(Cl)cc2)n1` [MTF 286, 4-chloro-N—(N-(4-methylthiazol-2-yl)carbamimidoyl)benzimidamide] the same measures were 48%, 155%, 65.3% and 120%.
For the compound `Cc1csc(NC(=N)NC(=N)c2ccccc2Br)n1` [MTF 287, 2-bromo-N—(N-(4-methylthiazol-2-yl)carbamimidoyl)benzimidamide], the viability at 5 µM turned out to be 60.9% under setting [1] and 86.7% under setting [2]. Further, the viability at 10 µM is 53.7% under setting [3] and 69.5% under setting [4].
Consider `Cc1csc(NC(=N)NC(=N)c2cccc(Br)c2)n1` [MTF 288, 3-bromo-N—(N-(4-methylthiazol-2-yl)carbamimidoyl)benzimidamide], for which the viability at 5 µM was determined as 50% under setting [1] and 96.7% under setting [2]. Also, the viability at 10 µM came to 70% under setting [3] and 53.5% under setting [4].
For `Cc1csc(NC(=N)NC(=N)c2ccccn2)n1` [MTF 289, N—(N-(4-methylthiazol-2-yl)carbamimidoyl)picolinimidamide], the viability at 5 µM is 81.1% under setting [1] and 90.4% under setting [2]. The viability at 10 µM under setting [3] came out at 78.7% and the viability at 10 µM under setting [4] was 58.2%.
The like results for `Cc1csc(NC(=N)NC(=N)c2cccnc2)n1` [MTF 290, N—(N-(4-methylthiazol-2-yl)carbamimidoyl)nicotinimidamide] were, in that order, 43.4%, 21.6%, 50.5% and 14.4%.
For `Cc1csc(NC(=N)NC(=N)c2ccncc2)n1` [MTF 291, N—(N-(4-methylthiazol-2-yl)carbamimidoyl)isonicotinimidamide] the same measures were 100%, 95.2%, 100% and 41.3%.
For the compound `COc1ccc(C(=N)NC(=N)Nc2nc(C)cs2)cc1` [MTF 292, 4-methoxy-N—(N-(4-methylthiazol-2-yl)carbamimidoyl)benzimidamide], the viability at 5 µM under setting [1] is 88.1% and the viability at 5 µM under setting [2] turned out to be 83.3%. In addition, the viability at 10 µM runs as follows: under setting [3], 142%; under setting [4], 71.9%.
For `Cc1nc(NC(=N)NC(=N)c2ccccc2Br)sc1C` [MTF 295, 2-bromo-N—(N-(4,5-dimethylthiazol-2-yl)carbamimidoyl)benzimidamide], the viability at 5 µM by setting is: under setting [1], 109%; under setting [2], 37.3%. The viability at 10 µM runs as follows: under setting [3], 66.1%; under setting [4], 39.3%.
